According to ChEMBL document CHEMBL1151606, “Relationship of structure of bridged (2,6-dimethyl-4-pyridinyl)quinolones to mammalian topoisomerase II inhibition” (Bioorg Med Chem Lett, 1993):

Key:
[1] = target: DNA topoisomerase II (Homo sapiens, UniProt P11388+Q02880); assay: Tested for inhibitory activity against Topoisomerase II isolated from HeLa cells by using SDS-K+ precipitation method; assay type: cell-based
[2] = system: Mus musculus; assay: Tested for the increased life span (ILS) in murine leukemia model (in which P388 administered intraperitoneally), at a concentration of 1014 mg/kg; assay type: functional; details: P388, ip, route intraperitoneal
[3] = system: Mus musculus; assay: Tested for the increased life span (ILS) in murine leukemia model (in which P388 administered intraperitoneally), at a concentration of 180 mg/kg; assay type: functional; details: P388, ip, route intraperitoneal

Compound	EC50 [1] [µM]	ILS at 1014 mg/kg [2] [%]	ILS at 180 mg/kg [3] [%]
Cc1cc(-c2c(F)cc3c(=O)c(C(=O)O)cn4c3c2SC[C@@H]4C)cc(C)n1	9.4	90	–
Cc1cc(-c2c(F)cc3c(=O)c(C(=O)O)cn4c3c2OCC42CC2)cc(C)n1	> 130	–	–
Cc1cc(-c2c(F)cc3c(=O)c(C(=O)O)cn4c3c2OCC4(C)C)cc(C)n1	510	–	–
CCn1cc(C(=O)O)c(=O)c2cc(F)c(-c3cc(C)nc(C)c3)cc21	> 570	–	–
Cc1cc(-c2c(F)cc3c(=O)c(C(=O)O)cn4c3c2[S+]([O-])C[C@@H]4C)cc(C)n1 (stereo partly drawn)	62	–	–
Cc1cc(-c2c(F)cc3c(=O)c(C(=O)O)cn4c3c2SC[C@H]4C)cc(C)n1	> 260	–	–
Cc1cc(-c2c(F)cc3c(=O)c(C(=O)O)cn4c3c2OCC4)cc(C)n1.Cl	> 560	–	–
COc1cc([C@@H]2c3cc4c(cc3C(O[C@@H]3O[C@@H]5CO[C@@H](C)O[C@H]5[C@H](O)[C@H]3O)C3COC(=O)[C@@H]32)OCO4)cc(OC)c1O (single isomer, unassigned) [ETOPOSIDE]	–	–	220

The next lines start with results.

EC50 [1] [µM]	Compound	ILS at 1014 mg/kg [2] [%]	ILS at 180 mg/kg [3] [%]
150	Cc1cc(-c2c(F)cc3c(=O)c(C(=O)O)cn4c3c2OCC[C@@H]4C)cc(C)n1	–	–
57	C[C@H]1COc2c(-c3ccncc3)c(F)cc3c(=O)c(C(=O)O)cn1c23	–	–
31	Cc1cc(-c2c(F)cc3c(=O)c(C(=O)O)cn4c3c2OC[C@@H]4C)cc(C)n1	–	–
730	Cc1cc(-c2c(F)cc3c(=O)c(C(=O)O)cn4c3c2NC[C@@H]4C)cc(C)n1	–	–
50	Cc1cc(-c2c(F)c(F)c3c(=O)c(C(=O)O)cn4c3c2OC[C@@H]4C)cc(C)n1	–	–
58	C[C@H]1COc2c(-c3ccc4cnccc4c3)c(F)cc3c(=O)c(C(=O)O)cn1c23	–	–
420	CC[C@H]1COc2c(-c3cc(C)nc(C)c3)c(F)cc3c(=O)c(C(=O)O)cn1c23	–	–
> 290	Cc1cc(-c2ccc3c(=O)c(C(=O)O)cn4c3c2OC[C@@H]4C)cc(C)n1	–	–
> 540	Cc1cc(-c2c(F)cc3c(=O)c(C(=O)O)cn4c3c2OC[C@H]4C)cc(C)n1	–	–
